Like-named read-outs stand apart in the source and are kept apart here.
Assays:
[1] = Population PK model of AZD7687 plasma concentrations in SAD and MAD studies (2-compartment, first order absorption); format: in vivo; settings: human
Method: Full details of the study protocols have previously been reported by Denison et al14 for Single Ascending Dose study (SAD) and Denison et al16 for the Multiple Ascending Dose Study (MAD). In brief, in the SAD, 80 healthy male subjects were enrolled.
(§1) Full description of all the PK models is provided in supplementary section S1.
Models were implemented using nonlinear mixed effects modeling in Phoenix NLME, version 1.3 (Certara). The analysis was conducted using the first order conditional estimation (FOCE‐ELS) during the sequential and simultaneous analysis (the expectation maximization method (QRPEM) was used for the simultaneous fitting of the human data due to speed and ability to converge).
Inter-individual variability was estimated on CL, V1, V2 and ka parameters according to a log-normal distribution of individual parameters. […] Residual error was characterized with a proportional plus additive error model.

[2] = PK model of AZD7687 plasma concentrations during rat OLTT (1-compartment); format: in vivo
Method: (§2) Full description of the OLTT in the rat has been published previously.17 In brief, 53 male Han‐Wistar rats (∼230 g), previously maintained on a chow diet, were fasted for 14 hours. […] Six remaining animals were kept untreated and served as naive controls.
as §1
As PK data was only collected for 11h post dose, the ability to fit complex PK models was limited. The aim of the PK fitting was to describe the kinetics of the compound during the OLTT instead of a full characterization of the PK properties of the compound. […] Inter-individual variability was estimated on CL and V parameters according to a log-normal distribution of individual parameters. […] Residual error was characterized with a proportional plus additive error model.

[3] = PK model of AZD7687 plasma concentrations during mouse OLTT (1-compartment); format: in vivo
Method: Oral Lipid Tolerance Test in the mouse was carried out in a similar way to rats.
as §1
As PK data was only collected for 4h post dose, the ability to fit complex PK models was limited. As with the rat, the aim of the PK fitting was to describe the kinetics of the compound during the OLTT instead of a full characterization of the PK properties of the compound. […] Inter-individual variability was estimated on CL and V parameters according to a log-normal distribution of individual parameters. Correlation between Cl and V parameters was allowed. […] Residual error was characterized with a proportional error model.

[4] = tested on: plasma TAG; test: PK/PD model of plasma TAG after Oral Lipid Tolerance Test (corn oil); settings: rat OLTT, free plasma concentration, read-out: IC50 (free in vivo IC50, inhibition of exogenous TAG contribution to plasma)
Method: as §2
Biological plausibility combined with stable parameter estimation was used in the evaluation of different potential PK/PD models to help select the optimal one. The key components of the final PK/PD TAG model are described in Figure 1. The introduction of exogenous TAG into the system is represented by a first order process from the lipid depot compartment (assumed to be the gut) to the central compartment (plasma). A lag time to accommodate the time delay from ingestion of the fatty meal to the resulting increase in plasma TAG was needed. In addition, there is an endogenous production and removal of TAG from plasma described with a turnover model controlled by the turnover rate (kin) (production) and the fractional turnover rate (kout) (loss). Turnover model was reparameterized using the relationship of kin to baseline plasma TAG (R0) (R0 = kin/kout) to increase numerical stability.
KaTAG is the absorption rate of exogenous TAG into plasma, VTAG is the volume of distribution of exogenous TAG, and TlagTAG is the time delay for the absorption of TAG from the SMM. […]

[5] = tested on: plasma TAG; settings: human SAD OLTT study, iAUC analysis of plasma TAG vs plasma concentration at start of meal test; read-out: in vivo IC50, previously published; cited from earlier work
[6] = tested on: plasma TAG; set-up: method as in PMID 23116186; settings: cited from earlier work
[7] = set-up: method as in PMID 23116186; settings: human plasma; cited from earlier work
[8] = tested on: DGAT1 (in liver microsomes); set-up: method as in Barlind_2012; settings: human liver microsomes; ref Barlind_2012; read-out: In vitro potency (IC50) against DGAT1; cited from earlier work
[9] = tested on: DGAT1 (in liver microsomes); set-up: method as in Barlind_2012; settings: rat liver microsomes; ref Barlind_2012; read-out: In vitro potency (IC50) against DGAT1; cited from earlier work
[10] = tested on: DGAT1 (in liver microsomes); set-up: method as in Barlind_2012; settings: mouse liver microsomes; ref Barlind_2012; read-out: In vitro potency (IC50) against DGAT1; cited from earlier work
[11] = tested on: HuTu 80 (Human gastrointestinal tumor cell line); set-up: method as in Barlind_2012; settings: HuTu 80 cells; ref Barlind_2012; read-out: In vitro potency (IC50) in HuTu 80; cited from earlier work
[12] = human; cited from earlier work
[13] = rat plasma; cited from earlier work
[14] = mouse plasma; cited from earlier work
[15] = tested on: plasma TAG; test: PK/PD model of plasma TAG after Oral Lipid Tolerance Test (Intralipos 20%)
[16] = tested on: plasma TAG; test: PK/PD model of plasma TAG after Oral Lipid Tolerance Test (standardized mixed meal)
[17] = using free concentrations in plasma

Structure (SMILES): Cc1nc(C)c(-c2ccc(C3CCC(CC(=O)O)CC3)cc2)nc1C(N)=O (stereo not drawn) [AZD7687]
- Cl (tvCL, apparent clearance) [1, 17]: 28.1 L/h
- V2 (tvV2, peripheral volume of distribution) [1, 17]: 136.8 L
- Tmax ([1]; male, plasma, post dose, oral, read-out: T max in plasma): ≤ 1 h
- Vd ([1]; male, oral, using free concentrations in plasma, read-out: V (tvV1, central volume of distribution)): 320 L
- IIV V ([2]; in vivo): 11.7%
- CL/F ([2]; male, Han-Wistar, oral, supplement, free concentrations in plasma, read-out: tvCl (apparent clearance) (converted)): 12.2 mL/min/kg
- clearance ([2]; male, Han-Wistar, plasma, oral, Table 1, free concentrations): 12.2 mL/min
- V ([3]; Table 1, free concentrations): 13.14 L
- CL/F ([3]; male, ICR, oral, supplement, free concentrations in plasma, read-out: tvCl (apparent clearance) (converted)): 36.2 mL/min/kg
- Vd ([3]; male, ICR, oral, supplement, free concentrations in plasma, read-out: tvV (apparent volume of distribution)): 13.1 L/kg
- clearance ([3]; male, ICR, plasma, oral, Table 1, free concentrations): 36.2 mL/min
- IC50 [4]: 162 nM
- IC50 [5]: 20 nM
- IC50 ([6]; rat OLTT study, single time point data for plasma TAG and PK, read-out: in vivo IC50, previously published): 42 nM
- effect on TAG excursion after OLTT ([6]; rats, exposure dependant): reduces the TAG excursion
- free fraction (fu) [7]: 0.055
- IC50 [8]: 70 nM
- IC50 [9]: 150 nM
- IC50 [10]: 100 nM
- IC50 [11]: 10 nM
- side effects leading to stop of clinical development [12]: intolerable side effects
- free fraction (fu) [13]: 0.03
- free fraction (fu) [14]: 0.1
- IC50 ([15]; Mus musculus, po, read-out: IC50 (free in vivo IC50, inhibition of exogenous TAG contribution to plasma), mouse OLTT, free plasma concentration): 81 nM
- IC50 ([15]; read-out: IC50 (free in vivo IC50, inhibition of exogenous TAG contribution to plasma), mouse OLTT, free plasma concentration): 80 nM
- IC50 ([16]; Homo sapiens, po, read-out: IC50 (free in vivo IC50, inhibition of exogenous TAG contribution to plasma), human OLTT, free plasma concentration): 8 nM
- IC50 ([16]; read-out: IC50 (free in vivo IC50, inhibition of exogenous TAG contribution to plasma), human OLTT, free plasma concentration): 7.8 nM
